Assay results: patent US5643907A, “Pharmaceutical composition containing 5-morpholinomethyl-3-(4-chlorobenzylideneamine)-2-oxazolidinone and its use for the treatment of CNS disorders” (priority 1993, dated 1997)
Structures can show the parent of a compound that is named as a salt.

Key:
[1] = test system: mice premedicated with pargyline; test: Intensification of L-dopa effects in mice premedicated with pargyline; assay type: in vivo, mouse; settings: for Reaction of mice according to score: L-dopa 200 mg/kg i.p. after pargyline, control 1-2
Experimental: 3) The intensification of L-dopa effects in mice premedicated with pargyline.
Three hours after the oral administration of pargyline in the dosage of 40 mg/kg, there was applied orally either the examined preparation or IMI, followed after one hour by L-dopa administered intraperitoneally in the dosage of 200 mg/kg. The behaviour of the mice was evaluated according to the following 5-level score:
1 - piloerection, Straub's tail, exophtalmos of eyes, minute salivating, irritability.
2 - as above + translocations, single jumps.
3 - as above + bigger incitement of mobility, frequent jumps, climbing, single squeaks.
4 - as above + great incitement of mobility, aggresion, fights.
5 - as above + maximum incitement of mobility and aggresion

uptake of noradrenaline = test: Effect on the uptake of noradrenaline in vivo (protection from 6-OHDA); design: species or system rat; settings: for Concentration of noradrenaline in the brain X ± SEM: control 205 ± 10, 5
Experimental: The point of reference for measuring the inhibiting effect on the uptake of noradrenaline was the protection from the effect of 6-hydroxydopamine (6-OHDA), which was administered intraventricularly. Rats were applied intraventricularly 250 μg of 6-OHDA in the volume of 20 μl of 0,9% solution of […] and 0,1% solution of ascorbic acid. […] The animals were decapitated 7 days after and the level of noradrenaline in the whole brain was measured by the division on the Sephadex G-10 column and fluorimetric assay following oxidation.

rats behaviour = test: Influence on the rats behaviour in "despair test" (Porsolt), immobility period; assay type: in vivo, rat; settings: for The immobility period, % of control: twice
Experimental: 1) The influence on the rats behaviour in "despair test".
The rats were placed separately in upright, metallic cylindrical containers, 60 cm high and 18 cm in diameter, containing 15 centimeters of water, at a temperature of 25° C. […] After 24 hours the rats were dived in water again and for 5 minutes the complete immobility period was measured. The examined preparation (containing 5-morpholinomethyl-3-(4-chlorobenzylideneamine)-2-oxazolidinone hydrochloride) or imipramine (IMI) was administered per os twice: at 24 hours and one hour before the beginning of the observation.

[2] = test system: reserpine pretreated mice; test: Intensification of L-Dopa effects in reserpine pretreated mice; assay type: in vivo, mouse
Experimental: 2) The intensification of L-Dopa effects in reserpine pretreated mice.
The examined preparation was administered to mice p.o. in the dosages of 40 and 200 mg/kg 17 hours after reserpine in the dosage of 2,5 mg/kg had been administered intraperitoneally. After one hour L-dopa was injected in the dosage of 300 mg/kg. The intensification of L-dopa anti-reserpine action was evaluated according to the following parameters of the animals behaviour: mobility, irritability, ptosis and body temperature. According to the same empirical system IMI was examined in the dosages of 8 and 40 mg/kg.

beta-adrenergic receptor = test: Influence of chronic administration on concentration of beta-adrenergic cerebral receptors in vivo (3H-dihydroalprenolol bonding to cerebral cortex membranes); design: species or system rat
Experimental: Rats were administered the examined preparation in the form of intraperitoneally injection and the dosage of 200 mg/kg twice daily for six weeks. In the same empirical system IMI was examined in the dosage of 10 mg/kg. The animals were killed 24 hours after the last injection and their cerebral cortexes were skeletonized.
The population of the beta-adrenergic receptor was characterised by the examination of the parameters of the ^3 H-dihydroalprenolol (^3 H-DHA) bonding to the membranes (fractiom P2) of the cerebral cortex. The tissue was homogenised in 20 volumes of the 50 mM buffer TRIS-HCl, pH 7,6 in the Polytron disintegrator (position 4,155) and centrifuged at 1000 g for 10 minutes. The supernatant was decanted and again centrifuged at 25000 for 20 minutes. The operations were conducted in the temperature of 0°-4° C. The precipitate, after the second centrifugation, decanting and removing the supernatant, was kept in the temperature of -18° C. until the time of incubation (no longer than 48 hours). The final fraction P2 was obtained by the subsequent process of the sediment homogenisation in such a volume of 50 mM buffer TRIS-HCl, pH 7,6, that the final concentration of protein amounted to 1,5 mg/ml.
The incubation mixture, containing 450 μl of the fraction P2 suspension, 50 μl of the ^3 H-DHA solution (6 different solutions; the final concentrations in the mixture […]) and 50 μl of buffer or propranolol solution (the final concentration in the sample […]) was incubated for 30 minutes in the temperature of 25° C. The incubation was finished by filtrating the suspension through filters made of glass fibres. The filters were twice rinsed with 5 ml of cold (0° C.) buffer TRIS-HCl, pH 7,6, and placed in scintillation minivessels, to which Bray's liquid was added. The radioactivity was measured by the Packard scintillation counter, model B329 with the efficiency of 36-37%.
The specific bonding was defined as the radioactivity difference between the samples incubated in the absence of propranolol (complete bonding) and in the presence of 10 μM of propranolol (blank). The data from the counter […] were recalculated individually into the decay frequence […], calculating it from the individual efficiency of each sample, received from the relation of impulses in the canals A and B. Bmax value and the constant of dissociation KD was calculated from the Scatchard diagrams, which were rectilinear.

[3] = test system: mice in the conditions of hypoxia; test: Effect on the time of survival in the conditions of hypoxia; assay type: in vivo, mouse; settings: for The number of mice surviving in the conditions of hypoxia: surviving/complete number
Experimental: The examined preparation was applied i.o. in the dosages 5, 10, 50, 75, 100 mg/kg 60 minutes before the beginning of the experiment. The experiment lasted until 0-3 animals survived in the control group. Subsequently oxygen was let in and finally normal air. The number of animals which survived in the control group was compared to the number of animals in the group administered the examined preparation. The number of surviving mice is presented in relation to the complete number of examined mice.

uptake of serotonin [4] = test: Effect on the uptake of serotonin in vivo (protection from p-chloramphetamine)
[5] = test system: process of learning and memorising; test: Effect on the process of learning and memorising (conditioned jump on a bar); assay type: in vivo, rat
uptake of serotonin [6] = settings: 200 mg/kg before p-CA; control 353 ± 117, 7
[7] = 10 mg/kg chronic administration, six weeks
[8] = 100 mg/kg, controls: Examined 9/60 (p <0, 01), Piracetam 7/40 (n.d.), Pyritinol 8/60 (p <0, 01)
[9] = mice premedicated with pargyline
[10] = 200 mg/kg daily dosage, chronic

SMILES: CN(C)CCCN1c2ccccc2CCc2ccccc21 [IMI, imipramine, reference compound]
- Reaction of mice according to score ([1]; 4 mg/kg p.o.): 4
- Reaction of mice according to score ([1]; 40 mg/kg p.o.): 3-4
- noradrenaline, % in relation to the group after chemosympathectomy (uptake of noradrenaline; 20 mg/kg before 6-OHDA): 188%
- Concentration of noradrenaline in the brain X ± SEM (uptake of noradrenaline; 20 mg/kg before 6-OHDA): 179 ± 113, 5 mg/kg tissue
- The immobility period, % of control (rats behaviour; 20 mg/kg p.o.): 88%
- Temper. 60' (body temperature) ([2]; 8 mg/kg + L-Dopa 300 mg/kg after reserpine): 34,3
- Bmax, % of control (beta-adrenergic receptor; [7]): 60%
- KD, % of control (beta-adrenergic receptor; [7]): 129%

SMILES: Cc1ncc(CSSCc2cnc(C)c(O)c2CO)c(CO)c1O [Pyritinol, pyritinol, reference compound]
- The number of mice surviving in the conditions of hypoxia [3, 8]: 30/60

SMILES: NC(=O)CN1CCCC1=O [Piracetam, piracetam, reference compound]
- The number of mice surviving in the conditions of hypoxia [3, 8]: 6/40
- The number of mice surviving in the conditions of hypoxia ([3]; 300 mg/kg, control 6/60, p <0, 05): 18/60

SMILES: NCCc1cc(O)c(O)cc1O [6-OHDA, 6-hydroxydopamine, reference compound]
- decline of the noradrenalin content in the cerebrum (uptake of noradrenaline; 6-OHDA administered intraventricularly): over 50%
- noradrenaline, % in relation to the group after chemosympathectomy (uptake of noradrenaline; 6-OHDA alone (reference group), control 216): 100%

SMILES: CC(N)Cc1ccc(Cl)cc1 (centres unmarked) [p-CA, p-chloramphetamine, reference compound]
- serotonin, % in relation to the group after p-chloramphetamine (uptake of serotonin [4]; p-CA alone (reference group), control 169): 100%
- decline of the cerebral serotonine concentration (uptake of serotonin [4]; p-chloramphetamine alone): 40%

SMILES: O=C1OC(CN2CCOCC2)CN1N=Cc1ccc(Cl)cc1 (centres unmarked) [Examined preparation, 5-morpholinomethyl-3-(4-chlorobenzylideneamine)-2-oxazolidinone hydrochloride]
- serotonin, % in relation to the group after p-chloramphetamine (uptake of serotonin [4]; 40 mg/kg before p-CA): 107%
- serotonin, % in relation to the group after p-chloramphetamine (uptake of serotonin [4]; 200 mg/kg before p-CA): 172%
- prevention of the p-chloramphetamine effect (uptake of serotonin [4]; high dosage): prevented the p-chloramphetamine effect completely
- effect on the washing-out action of p-chloramphetamine (uptake of serotonin [4]; low dosage): did not produce any effects on the washing-out action of p-chloramphetamine
- The number of mice surviving in the conditions of hypoxia ([3]; 5 mg/kg, control 7/40, p n.d.): 5/40
- The number of mice surviving in the conditions of hypoxia ([3]; 10 mg/kg, control 5/40, p n.d.): 6/40
- The number of mice surviving in the conditions of hypoxia ([3]; 50 mg/kg, control 9/60, p <0, 01): 23/60
- The number of mice surviving in the conditions of hypoxia ([3]; 75 mg/kg, control 9/60, p <0, 01): 28/60
- The number of mice surviving in the conditions of hypoxia [3, 8]: 47/60
- time of mice survival in the conditions of hypoxia ([3]; in comparison to piracetam and pyritinol): prolongs the time of mice survival in the conditions of hypoxia
- Reaction of mice according to score ([1]; 10 mg/kg p.o.): 5
- Reaction of mice according to score ([1]; 20 mg/kg p.o.): 5
- Reaction of mice according to score ([1]; 40 mg/kg p.o.): 5
- Reaction of mice according to score ([1]; 200 mg/kg p.o.): 3-4
- mobility and emotion incitement ([1]; after the dosages of 10, 20 and 40 mg/kg): strongest mobility and emotion incitement
- effectiveness compared with IMI [1, 9]: stronger effectiveness than IMI
- intensification of L-dopa effects [1, 9]: very strong intensification of L-dopa effects
- process of learning ([5]; 5 mg/kg i.p. everyday): accelerates the process of learning
- effect on learning compared with piracetam and pyritinol ([5]; 5 mg/kg i.p. vs piracetam 100 mg/kg, pyritinol 100 mg/kg): weaker than the effect of piracetam, but stronger than the effect of pyritinol
- noradrenaline, % in relation to the group after chemosympathectomy (uptake of noradrenaline; 40 (mg/kg) before 6-OHDA): 92%
- noradrenaline, % in relation to the group after chemosympathectomy (uptake of noradrenaline; 200 (mg/kg) before 6-OHDA): 155%
- Concentration of noradrenaline in the brain X ± SEM (uptake of noradrenaline; 200 (mg/kg) before 6-OHDA): 148 ± 24, 9 mg/kg tissue
- inhibiting the uptake of noradrenaline (uptake of noradrenaline; high dosages): proves effective in inhibiting the uptake of noradrenaline
- inhibition of the effect of 6-OHDA compared with IMI (uptake of noradrenaline; higher dosage): inhibits it almost as effectively as IMI
- prevention of the effect of 6-OHDA (uptake of noradrenaline; low dosage): does not prevent the effect of 6-OHDA completely
- Concentration of serotonin in the brain X ± SEM (uptake of serotonin [6]): 367 ± 30, 1 mg/kg tissue
- The immobility period, % of control (rats behaviour; 40 mg/kg p.o.): 89%
- effect on immobility compared with IMI (20 mg/kg) (rats behaviour; 200 mg/kg): equals approximately to the effect of IMI (20 mg/kg)
- shortened the rats' immobility period in relation to the control group (rats behaviour; 200 mg/kg): 18%
- The immobility period, % of control (rats behaviour; 200 mg/kg p.o.): 82%
- irritability and incitement, second phase ([2]; 200 mg/kg, after 90 minutes): there appeared irritability and big incitement, which lasted over an hour
- body posture (righting) reflex ([2]; 200 mg/kg, first hour after the application): loss of body posture (righting) reflex
- effectiveness of smaller versus bigger dosage ([2]; 40 vs 200 mg/kg): A smaller dosage proved to be more effective than a bigger one
- effect on ptosis, hypothermy, mobility and irritability ([2]; reserpine pretreated mice + L-dopa): reduced ptosis and hypothermy and raised the animals' mobility and irritability
- intensification of the behavioural effects of L-dopa ([2]; reserpine pretreated mice, compared with IMI): intensified the behavioural effects of L-dopa action in reserpine pretreated mice in the same way as IMI
- Bmax, % of control (beta-adrenergic receptor; 40 mg/kg daily dosage, chronic): 67%
- KD, % of control (beta-adrenergic receptor; 40 mg/kg daily dosage, chronic): 63%
- Bmax, % of control (beta-adrenergic receptor; [10]): 72%
- KD, % of control (beta-adrenergic receptor; [10]): 68%
- effect on the concentration of receptors, compared with imipramine (beta-adrenergic receptor; both dosages, chronic): did not differ considerably
- constant of dissociation value KD / beta-adrenergic receptor affinity (beta-adrenergic receptor; both dosages, chronic, as distinct from imipramine): statistically considerable decline of the constant of dissociation value KD and consequently the increase of the beta-adrenergic receptor affinity
